Measured values: ChEMBL document CHEMBL1201862, “PubChem BioAssay data set” (2004)
Activity calls are given as the source filed them.

Experiments:
[1] = HIV-1 AD8 envelope cell-cell fusion blockers – cherry-pick, dose response (AID 652062); format: functional, cell-based;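 note: luciferase signal from cell-cell fusion driven by HIV-1 clade B AD8 Env; potency is for inhibitors of fusion seen as a drop in luminescence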
[2] = off-target signal loss in HeLa-CEM21 co-culture – HeLa F-luc CTL cells, cherry-picked, counter-screen for HIV-1 Env fusion inhibitor project, dose response (AID 652040); format: functional, cell-based;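 note: potency for signal decrease marking cytotoxic or nonspecific inhibition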
[3] = blockers of HIV-1 ZM109 envelope-driven cell-cell fusion – HeLa effector, CEM target cells, luciferase, cherry-pick, dose response (AID 652058); format: functional, cell-based;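 note: luciferase signal from HIV-1 Env mediated cell-cell fusion of effector and target cells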
[4] = blockers of HIV-1 envelope-mediated cell-cell fusion – cherry-pick, dose response (AID 652057); format: functional, cell-based
[5] = viability loss in CEM21 cells – cell-based, CellTiter-Glo luminescence, cherry-picked, cytotoxicity control for viral fusion inhibitor project, dose response (AID 652042); format: functional;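 note: potency for signal decrease meaning cytotoxicity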
[6] = target: 5-hydroxytryptamine receptor 2A (Mus musculus, UniProt P35363); format: functional, cell-based;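 note: CHO-K1 cells with tagged receptor and beta-arrestin; agonist potency measured as compound-induced activation of the receptor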
[7] = target: Mu-type opioid receptor (Homo sapiens, UniProt P35372); format: functional, cell-based;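 note: U2OS cells with beta-arrestin recruitment to OPRM1 by beta-gal complementation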
[8] = target: Major prion protein (Homo sapiens, UniProt P04156); format: functional, cell-based
[9] = cells
[10] = target: T1, RNA-binding protein pos-1 (Caenorhabditis elegans, UniProt G5EF15); assay: disruptors of C. elegans POS-1 RNA interaction – biochemical, fluorescence polarization, dose response (AID 1964);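 note: purified POS-1 fused to maltose binding protein made in E. coli; potency of compounds blocking POS-1 binding to fluorescent RNA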
T1 sequence (G5EF15 whole entry): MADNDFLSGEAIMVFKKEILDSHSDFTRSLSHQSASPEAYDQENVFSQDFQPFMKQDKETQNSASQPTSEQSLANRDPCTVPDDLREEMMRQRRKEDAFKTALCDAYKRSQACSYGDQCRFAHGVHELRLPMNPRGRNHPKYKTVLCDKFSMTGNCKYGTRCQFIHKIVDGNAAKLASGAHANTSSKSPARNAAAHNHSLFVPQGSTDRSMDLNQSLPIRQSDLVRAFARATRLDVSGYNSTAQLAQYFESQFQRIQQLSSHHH

[11] = target: Albumin (Bos taurus, UniProt P02769); assay: Counterscreen for inhibitors of T-cell receptor (TCR)-CD3 interaction: Fluorescence-based biochemical high throughput dose response assay to identify inhibitors of T-cell receptor (TCR)-CD3 interaction using a TAMRA-labeled BSA probe.; format: functional
[12] = target: T2, Zinc finger protein mex-5 (Caenorhabditis elegans, UniProt Q9XUB2); assay: potency of MEX-5 RNA-binding blockers – biochemical, C. elegans, fluorescence polarization, dose response (AID 1960)
T2 sequence (Q9XUB2 whole entry): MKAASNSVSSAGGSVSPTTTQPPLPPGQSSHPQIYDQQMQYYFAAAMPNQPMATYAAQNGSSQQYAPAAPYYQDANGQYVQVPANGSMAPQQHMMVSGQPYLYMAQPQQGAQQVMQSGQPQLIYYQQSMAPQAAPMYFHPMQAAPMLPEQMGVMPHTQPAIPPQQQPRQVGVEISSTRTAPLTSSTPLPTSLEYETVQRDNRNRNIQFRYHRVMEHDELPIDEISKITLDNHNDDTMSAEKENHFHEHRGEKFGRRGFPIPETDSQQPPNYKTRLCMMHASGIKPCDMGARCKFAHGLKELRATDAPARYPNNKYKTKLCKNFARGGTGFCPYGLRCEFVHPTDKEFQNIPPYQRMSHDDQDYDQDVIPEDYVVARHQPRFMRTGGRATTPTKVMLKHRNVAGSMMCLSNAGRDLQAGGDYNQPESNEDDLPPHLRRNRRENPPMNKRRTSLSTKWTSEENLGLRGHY

[13] = target: T3, Aminopeptidase N (Plasmodium falciparum FcB1/Columbia, UniProt O96935); assay: malaria alanyl aminopeptidase activity blockers – biochemical, fluorogenic H-Leu-NHMec substrate, 1536-well (AID 1445); design: species or system Plasmodium falciparum 3D7, 3D7
T3 sequence (O96935 whole entry): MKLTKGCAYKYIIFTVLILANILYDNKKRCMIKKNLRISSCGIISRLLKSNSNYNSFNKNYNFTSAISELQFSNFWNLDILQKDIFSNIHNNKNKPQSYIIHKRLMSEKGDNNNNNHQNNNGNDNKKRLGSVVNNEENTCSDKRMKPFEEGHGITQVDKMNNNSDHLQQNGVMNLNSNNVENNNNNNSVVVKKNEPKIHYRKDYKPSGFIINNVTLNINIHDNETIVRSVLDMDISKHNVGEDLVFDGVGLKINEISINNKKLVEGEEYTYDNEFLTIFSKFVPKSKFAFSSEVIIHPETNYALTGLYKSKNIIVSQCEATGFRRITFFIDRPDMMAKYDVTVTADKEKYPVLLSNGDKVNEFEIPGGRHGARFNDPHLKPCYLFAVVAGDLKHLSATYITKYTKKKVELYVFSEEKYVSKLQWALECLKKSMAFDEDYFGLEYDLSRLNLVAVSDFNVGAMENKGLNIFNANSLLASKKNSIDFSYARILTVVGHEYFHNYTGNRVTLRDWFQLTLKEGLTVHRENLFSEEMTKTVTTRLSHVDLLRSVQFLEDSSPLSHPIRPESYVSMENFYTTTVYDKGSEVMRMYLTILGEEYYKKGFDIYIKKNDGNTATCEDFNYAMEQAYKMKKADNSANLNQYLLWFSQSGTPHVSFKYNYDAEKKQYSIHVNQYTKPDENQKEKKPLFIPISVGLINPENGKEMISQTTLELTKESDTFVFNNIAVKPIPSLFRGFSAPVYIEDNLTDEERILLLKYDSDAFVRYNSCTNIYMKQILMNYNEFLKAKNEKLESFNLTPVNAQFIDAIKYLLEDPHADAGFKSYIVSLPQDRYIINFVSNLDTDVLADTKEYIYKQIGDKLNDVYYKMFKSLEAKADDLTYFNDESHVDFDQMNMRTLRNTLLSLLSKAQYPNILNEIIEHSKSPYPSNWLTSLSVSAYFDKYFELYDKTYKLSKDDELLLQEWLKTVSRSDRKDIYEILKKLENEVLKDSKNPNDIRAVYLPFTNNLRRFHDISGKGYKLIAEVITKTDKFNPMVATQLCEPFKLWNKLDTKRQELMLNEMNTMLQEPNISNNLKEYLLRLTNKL

[14] = cells; format: functional, cell-based; conditions: HEK-CNG
[15] = target: T4, Galanin receptor type 3 (Homo sapiens, UniProt O60755); assay: Fluorescence-based cell-based primary high throughput dose response assay to identify antagonists of the Galanin Receptor 3 (GalR3).; format: functional
T4 sequence (O60755 whole entry): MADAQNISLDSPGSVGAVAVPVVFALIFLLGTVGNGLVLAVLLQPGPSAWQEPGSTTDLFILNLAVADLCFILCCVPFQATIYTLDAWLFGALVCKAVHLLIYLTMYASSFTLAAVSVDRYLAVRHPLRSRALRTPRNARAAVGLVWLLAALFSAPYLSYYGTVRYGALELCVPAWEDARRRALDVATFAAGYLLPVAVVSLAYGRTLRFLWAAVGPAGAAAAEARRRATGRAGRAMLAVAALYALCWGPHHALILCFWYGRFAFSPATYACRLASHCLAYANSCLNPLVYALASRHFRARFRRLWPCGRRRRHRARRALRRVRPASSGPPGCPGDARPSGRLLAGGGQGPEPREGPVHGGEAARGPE

[16] = test system: Streptococcus sp. 'group A'; assay: Streptococcus pyogenes SK(-)GAS viability under kanamycin – luminescence, BacTiterGlo, confirmation, counter-screen for streptokinase expression inhibitor project, dose response (AID 1900); format: functional, organism-based
[17] = test system: Streptococcus; assay: GAS UMAA2166 growth inhibition – luminescence, BacTiterGlo, counter-screen for streptokinase expression inhibitor project, dose response (AID 1915); format: functional, organism-based;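 note: potency for reduction of bacterial viability or growth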
[18] = test system: Vero; assay: cells; format: functional; conditions: Chlorocebus sabaeus
[19] = target: T5, Sentrin-specific protease 8 (Homo sapiens, UniProt Q96LD8); format: functional
T5 sequence (Q96LD8 whole entry): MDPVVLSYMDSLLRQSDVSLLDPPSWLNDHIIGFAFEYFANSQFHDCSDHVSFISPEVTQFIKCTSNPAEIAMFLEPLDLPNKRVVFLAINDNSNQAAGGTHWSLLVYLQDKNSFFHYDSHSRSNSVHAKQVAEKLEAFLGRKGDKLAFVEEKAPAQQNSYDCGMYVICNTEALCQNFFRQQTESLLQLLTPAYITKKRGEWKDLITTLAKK

[20] = target: T6, Carboxy-terminal domain RNA polymerase II polypeptide A small phosphatase 1 (Homo sapiens, UniProt Q9GZU7); assay: CTDSP1 inhibitors, concentration-response, biochemical, absorbance readout, ultra-high-throughput screen actives (AID 540297); format: functional
T6 sequence (Q9GZU7 whole entry): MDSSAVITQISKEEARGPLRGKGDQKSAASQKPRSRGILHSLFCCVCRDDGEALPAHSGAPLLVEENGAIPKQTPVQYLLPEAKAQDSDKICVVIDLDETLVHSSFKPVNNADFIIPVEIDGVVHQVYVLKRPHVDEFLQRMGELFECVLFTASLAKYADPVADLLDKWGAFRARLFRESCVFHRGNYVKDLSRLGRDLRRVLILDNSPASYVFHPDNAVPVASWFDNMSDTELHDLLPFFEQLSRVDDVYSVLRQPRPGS

[21] = target: T7, Corticotropin-releasing factor receptor 2/Corticotropin-releasing factor-binding protein (Homo sapiens, UniProt P24387+Q13324); assay: Dose Response confirmation of uHTS hits for small molecule antagonists of the CRF-binding protein and CRF-R2 receptor complex.; format: functional; conditions: read-out: IC50_Mean
T7 sequence (Q13324 whole entry): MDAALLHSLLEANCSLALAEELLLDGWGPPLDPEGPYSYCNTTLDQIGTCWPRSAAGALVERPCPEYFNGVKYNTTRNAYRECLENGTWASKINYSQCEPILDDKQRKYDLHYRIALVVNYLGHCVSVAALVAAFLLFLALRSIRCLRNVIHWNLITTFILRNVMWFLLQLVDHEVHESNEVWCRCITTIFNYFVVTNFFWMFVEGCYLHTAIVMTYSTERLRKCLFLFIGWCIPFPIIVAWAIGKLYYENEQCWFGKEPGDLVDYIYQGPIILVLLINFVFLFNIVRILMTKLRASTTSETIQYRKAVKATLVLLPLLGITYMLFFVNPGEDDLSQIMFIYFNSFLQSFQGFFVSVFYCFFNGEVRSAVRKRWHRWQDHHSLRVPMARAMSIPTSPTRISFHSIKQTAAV
T7 sequence (P24387 whole entry): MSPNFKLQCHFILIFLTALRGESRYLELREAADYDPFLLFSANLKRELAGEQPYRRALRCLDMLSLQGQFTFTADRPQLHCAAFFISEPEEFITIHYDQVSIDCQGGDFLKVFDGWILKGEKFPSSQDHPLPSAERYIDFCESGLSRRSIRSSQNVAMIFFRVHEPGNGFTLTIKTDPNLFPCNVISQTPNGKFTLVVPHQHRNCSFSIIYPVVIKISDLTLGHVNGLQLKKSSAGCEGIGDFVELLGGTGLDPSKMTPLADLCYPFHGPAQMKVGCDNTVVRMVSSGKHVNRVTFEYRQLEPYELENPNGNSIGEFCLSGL

[22] = target: T8, Fatty acid synthase (Homo sapiens, UniProt P49327); assay: inhibition of human FAS-TE enzyme activity – biochemical, endpoint fluorescence intensity, uHTS hits, dose response (AID 624327); format: functional;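 note: fluorescence from hydrolysis of an O-methyl fluorescein acyl ester substrate by the enzyme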
[23] = target: T5, Sentrin-specific protease 8; format: functional; remark: listed apart in the source
[24] = target: T7, Corticotropin-releasing factor receptor 2/Corticotropin-releasing factor-binding protein; assay: activators of CRF receptor 2 with binding protein – uHTS hits, confirmation (AID 602473); format: functional; conditions: read-out: EC50_Mean
[25] = target: T8, Fatty acid synthase; assay: inhibition of human FAS-TE enzyme activity – biochemical, kinetic fluorescence intensity, dose response (AID 624326); format: functional;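 note: rate of fluorescence rise from hydrolysis of a fluorogenic O-methyl fluorescein ester substrate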

With `COc1ccc(CC(N)c2csc(NC(=O)Nc3ccccc3Oc3ccccc3)n2)cc1` (stereo not given) the AC50 [1] was 2.16 µM (active), the AC50 [2] was 1.72 µM (active) and the AC50 [3] was 2.85 µM (active). The AC50 [4] was 1.17 µM (active) and the AC50 [5] was 21.3 µM (active).
In the case of `CCOC(=O)C1CCN(Cc2cccc(Oc3ccc(Cl)cc3)c2)CC1`, the EC50 [6] is reported as 2.82 µM (active) and the EC50 [7] is reported as 92.5 µM (inactive).
With `CCc1nc(SCC(=O)NNC(=O)c2ccc(C)cc2)c2ccccc2n1` the IC50 [8] was 1.36 µM (active) and the IC50 [9] was > 138 µM (inactive).
With `Cc1cc(C(=O)N/N=C/c2cc(Cl)cc([N+](=O)[O-])c2O)[nH]n1` the EC50 [10] was > 300 µM (not active), the IC50 [11] was > 94.1 µM (inactive) and the EC50 [12] was > 300 µM (inconclusive). The IC50 [13] was 52.3 µM (active).
In the case of `O=C(C1CCC1)N1CCc2cc(S(=O)(=O)NCCN3CCN(c4ccccc4F)CC3)ccc21`, the EC50 [6] is reported as 13.4 µM (inactive) and the EC50 [7] is reported as 92.5 µM (inactive).
In the case of `O=C(O)c1cc(-c2cccs2)nc2ccc(Br)cc12`, the IC50 [8] is reported as 1.41 µM (active) and the IC50 [9] is reported as > 138 µM (inactive).
For `CC1(C)CC2CC(C)(CN2S(=O)(=O)c2ccc(C(=O)Nc3cccc(S(=O)(=O)N4CCOCC4)c3)cc2)C1` (stereo not given), the EC50 [14] was > 29.9 µM (inactive), the IC50 [15] was 0.805 µM (active) and the IC50 [11] was > 94.1 µM (inactive).
In the case of `COc1ccc(C(=O)NNC(=S)NC(=O)c2ccc(Br)o2)cc1OC`, the EC50 [16] is reported as 0.79 µM (active), the EC50 [17] is reported as 9.11 µM (active) and the IC50 [11] is reported as > 94.1 µM (inactive). For the same compound, the CC50 [18] was > 25 µM (active).
In the case of `CCC1(CC)Cc2ccccc2-c2nc(S)nc(O)c21`, the IC50 [8] is reported as 3.08 µM (active) and the IC50 [9] is reported as > 138 µM (inactive).
With `Cc1ccc(-n2[nH]c(C)c(/C=N/Nc3ccc([N+](=O)[O-])cc3[N+](=O)[O-])c2=O)cc1` the IC50 [19] was 62.4 µM (inactive), the IC50 [20] was 6.07 µM (active) and the IC50 [21] was 6.1 µM (active). The IC50 [22] was 12.6 µM (active), the IC50 [23] was 100 µM (inactive) and the EC50 [24] was > 53 µM (inactive). The IC50 [25] was 13.6 µM (active).
In the case of `O=C(c1ccco1)N1CCN(CCCCOc2ccc(F)cc2)CC1`, the EC50 [6] is reported as 4.68 µM (active) and the EC50 [7] is reported as 92.5 µM (inactive).
